Experiment [1] deals with baculovirus-expressed ALK (Homo sapiens, UniProt Q9UM73). The experiment in a line: ALK kinase inhibition, TRF/ELISA. It is filed as biochemical. Particulars: read-out: ALK Potency. A digest of the protocol:
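Plates were coated with GST-PLC-γ substrate (10 μg/mL) and the reaction was started with 30 ng/mL ALK, running 15 min at 37° C. Phosphotyrosine was detected by time-resolved fluorescence with Eu-labeled PT66 antibody. IC50s came from variable-slope sigmoidal fits of percent inhibition versus log concentration.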
A general note: In an ELISA, binding on a coated surface is turned into a signal by an enzyme label.

For experiment [2], the target named is baculovirus-expressed JAK2 kinase (Homo sapiens, UniProt O60674). The experiment in a line: biochemical. Conditions: 0.2 μM ATP; read-out: JAK2 Potency. In outline:
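Time-resolved fluorescence kinase assay using 15 ng/mL baculovirus-expressed JAK2 on Neutravidin-captured biotinylated 15-mer peptide substrate, reaction 20 min at room temperature. IC50 from percent inhibition versus log concentration, sigmoidal variable-slope fit.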

Each structure is given as a SMILES string. Where a name gives a salt, the structure may show the parent alone.

Sequence of baculovirus-expressed ALK (Q9UM73 19-1620): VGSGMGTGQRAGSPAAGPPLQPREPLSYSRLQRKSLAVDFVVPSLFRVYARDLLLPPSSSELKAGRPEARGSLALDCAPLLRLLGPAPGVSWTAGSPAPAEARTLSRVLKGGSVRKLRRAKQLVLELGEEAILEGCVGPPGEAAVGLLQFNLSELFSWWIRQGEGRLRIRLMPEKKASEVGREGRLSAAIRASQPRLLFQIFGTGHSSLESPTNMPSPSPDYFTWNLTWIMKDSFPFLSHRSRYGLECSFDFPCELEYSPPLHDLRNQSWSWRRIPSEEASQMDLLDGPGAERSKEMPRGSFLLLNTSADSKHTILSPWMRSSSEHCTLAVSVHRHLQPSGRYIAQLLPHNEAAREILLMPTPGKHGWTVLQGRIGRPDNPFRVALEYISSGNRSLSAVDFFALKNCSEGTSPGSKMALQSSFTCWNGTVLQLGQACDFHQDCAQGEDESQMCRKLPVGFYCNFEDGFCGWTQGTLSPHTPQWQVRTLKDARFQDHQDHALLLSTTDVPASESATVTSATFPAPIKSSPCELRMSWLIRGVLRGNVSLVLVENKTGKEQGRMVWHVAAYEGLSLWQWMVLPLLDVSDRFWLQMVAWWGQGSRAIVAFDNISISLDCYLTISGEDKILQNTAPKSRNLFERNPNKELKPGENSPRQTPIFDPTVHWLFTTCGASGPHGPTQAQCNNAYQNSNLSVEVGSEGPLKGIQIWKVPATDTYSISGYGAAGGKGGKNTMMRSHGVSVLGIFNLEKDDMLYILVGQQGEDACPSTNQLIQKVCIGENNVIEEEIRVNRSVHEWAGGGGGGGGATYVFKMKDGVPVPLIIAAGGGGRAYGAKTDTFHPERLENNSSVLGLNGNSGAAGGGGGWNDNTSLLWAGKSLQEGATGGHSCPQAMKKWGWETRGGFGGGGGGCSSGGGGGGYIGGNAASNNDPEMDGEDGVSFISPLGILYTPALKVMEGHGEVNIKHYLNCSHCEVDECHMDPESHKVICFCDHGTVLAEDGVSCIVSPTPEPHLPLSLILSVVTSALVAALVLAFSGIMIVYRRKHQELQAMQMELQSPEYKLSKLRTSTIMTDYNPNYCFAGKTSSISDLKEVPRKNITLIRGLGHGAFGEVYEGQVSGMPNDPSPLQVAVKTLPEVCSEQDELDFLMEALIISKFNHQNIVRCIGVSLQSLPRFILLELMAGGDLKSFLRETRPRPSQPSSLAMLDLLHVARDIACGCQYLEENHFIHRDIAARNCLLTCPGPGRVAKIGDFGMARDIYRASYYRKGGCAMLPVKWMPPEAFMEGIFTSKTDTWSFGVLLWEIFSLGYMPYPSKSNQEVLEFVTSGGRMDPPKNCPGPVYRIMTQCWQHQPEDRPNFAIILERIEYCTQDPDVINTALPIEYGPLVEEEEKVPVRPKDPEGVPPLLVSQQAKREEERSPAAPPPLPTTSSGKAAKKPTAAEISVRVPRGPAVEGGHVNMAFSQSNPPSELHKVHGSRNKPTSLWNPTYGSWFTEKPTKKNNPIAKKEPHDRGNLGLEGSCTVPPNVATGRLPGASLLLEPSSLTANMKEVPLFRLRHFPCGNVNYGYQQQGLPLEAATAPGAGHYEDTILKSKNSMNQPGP
Sequence of baculovirus-expressed JAK2 kinase (O60674 whole entry): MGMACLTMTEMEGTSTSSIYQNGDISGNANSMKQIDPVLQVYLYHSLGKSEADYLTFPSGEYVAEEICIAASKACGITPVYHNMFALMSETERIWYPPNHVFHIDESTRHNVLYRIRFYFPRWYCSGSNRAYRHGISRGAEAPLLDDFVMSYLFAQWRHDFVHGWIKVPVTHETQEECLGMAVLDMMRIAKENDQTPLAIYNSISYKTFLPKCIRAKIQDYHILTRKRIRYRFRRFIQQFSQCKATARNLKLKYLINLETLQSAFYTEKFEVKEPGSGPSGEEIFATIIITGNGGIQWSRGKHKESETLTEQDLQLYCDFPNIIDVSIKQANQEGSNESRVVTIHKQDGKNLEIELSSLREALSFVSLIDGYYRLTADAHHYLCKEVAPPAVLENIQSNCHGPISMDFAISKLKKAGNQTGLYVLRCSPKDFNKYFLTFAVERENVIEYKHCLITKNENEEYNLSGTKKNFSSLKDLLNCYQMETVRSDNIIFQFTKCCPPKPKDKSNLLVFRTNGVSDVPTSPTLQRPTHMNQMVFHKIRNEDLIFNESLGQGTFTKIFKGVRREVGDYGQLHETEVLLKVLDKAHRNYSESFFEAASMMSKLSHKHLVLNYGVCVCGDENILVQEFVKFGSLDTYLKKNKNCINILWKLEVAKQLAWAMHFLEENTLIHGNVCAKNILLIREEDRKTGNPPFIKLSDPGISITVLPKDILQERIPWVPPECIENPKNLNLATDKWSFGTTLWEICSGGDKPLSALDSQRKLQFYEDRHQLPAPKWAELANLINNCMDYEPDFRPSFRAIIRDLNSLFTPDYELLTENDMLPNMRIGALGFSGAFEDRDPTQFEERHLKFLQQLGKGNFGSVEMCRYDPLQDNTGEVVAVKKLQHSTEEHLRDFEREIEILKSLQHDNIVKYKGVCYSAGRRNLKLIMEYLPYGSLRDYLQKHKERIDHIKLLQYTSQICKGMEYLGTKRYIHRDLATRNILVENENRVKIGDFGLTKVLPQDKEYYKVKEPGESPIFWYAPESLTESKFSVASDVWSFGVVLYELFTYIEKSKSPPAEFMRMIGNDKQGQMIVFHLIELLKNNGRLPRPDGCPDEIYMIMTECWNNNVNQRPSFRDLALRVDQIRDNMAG

On to `CN1CCN(Cc2ccc(-c3nc4c(N[C@@H]5CCCC[C@H]5NS(C)(=O)=O)c(Cl)cnc4[nH]3)cc2)CC1` [CCLIV, N-((1R,2R)-2-{6-Chloro-2-[4-(4-methyl-piperazin-1-ylmethyl)-phenyl]-3H-imidazo[4,5-b]pyridin-7-ylamino}-cyclohexyl)-methanesulfonamide], for which the IC50 in experiment [1] and in experiment [2] was less than 100 nM throughout.

In the case of `O=C(NC1CC1)[C@@H]1[C@H](Nc2c(Cl)cnc3[nH]c(-c4sc(N5CCCC5)nc4Cl)nc23)[C@H]2C=C[C@@H]1C2` [Compound CLXXII, (1S,2S,3R,4R)-3-[6-Chloro-2-(4-chloro-2-pyrrolidin-1-yl-thiazol-5-yl)-3H-imidazo[4,5-b]pyridin-7-ylamino]-bicyclo[2.2.1]hept-5-ene-2-carboxylic acid cyclopropylamide], the IC50 in experiment [1] was less than 100 nM; in experiment [2], 100 to 1000 nM.

Turning to `CC12CCC(Nc3c(Cl)cnc4[nH]c(-c5ccc(N6CCOCC6)cc5)nc34)(CC1=O)C2(C)C` (stereo not shown) [Compound CXCVIII, 4-(6-chloro-2-(4-morpholinophenyl)-3H-imidazo[4,5-b]pyridin-7-ylamino)-1,7,7-trimethylbicyclo[2.2.1]heptan-2-one], the IC50 in experiment [1] was greater than 10000 nM; in experiment [2], less than 100 nM.

As to `NC(=O)[C@@H]1[C@H](Nc2c(Br)cnc3[nH]c(-c4ccc(N5CCOCC5)c(Cl)c4)nc23)[C@H]2C=C[C@@H]1C2` [Compound CXXXV, (1S,2S,3R,4R)-3-[6-Bromo-2-(3-chloro-4-morpholin-4-yl-phenyl)-3H-imidazo[4,5-b]pyridin-7-ylamino]-bicyclo[2.2.1]hept-5-ene-2-carboxylic acid amide], the IC50 in experiment [1] is 100 to 1000 nM; in experiment [2] it was less than 100 nM.

As to `COc1ccccc1Nc1nc2c(N[C@H]3[C@@H](C(N)=O)[C@@H]4C=C[C@H]3C4)c(Cl)cnc2[nH]1` [Compound LXVIII, (1S,2S,3R,4R)-3-[6-Chloro-2-(2-methoxy-phenylamino)-3H-imidazo[4,5-b]pyridine-7-ylamino]-bicyclo[2.2.1]hept-5-ene-2-carboxylic acid amide], the IC50 is 100 to 1000 nM in experiment [1] and less than 100 nM in experiment [2].

With `NC(=O)[C@@H]1[C@H](Nc2c(Cl)cnc3[nH]c(-c4cccc(F)c4)nc23)[C@H]2C=C[C@@H]1C2` [Compound CXXVIII], the IC50 is 100 to 1000 nM in experiment [1] and less than 100 nM in experiment [2].

In the case of `COc1cc(CN2CC[C@@H](O)C2)ccc1-c1nc2c(N[C@H]3[C@@H](C(N)=O)[C@@H]4C=C[C@H]3C4)c(Cl)cnc2[nH]1` [Compound XLVII, (1S,2S,3R,4R)-3-(6-Chloro-2-[4-((R)-3-hydroxy-pyrrolidin-1-ylmethyl)-2-methoxyphenyl]-3H-imidazo[4,5-b]pyridine-7-ylamino)-bicyclo[2.2.1]hept-5-ene-2-carboxylic acid amide], the IC50 in experiment [1] and in experiment [2] was less than 100 nM in each case.

On to `COc1ncc(-c2nc3c(N[C@H]4[C@@H](C(N)=O)[C@@H]5C=C[C@H]4C5)c(Cl)cnc3[nH]2)s1` [Compound CCIX, (1S,2S,3R,4R)-3-(6-chloro-2-(2-methoxythiazol-5-yl)-3H-imidazo[4,5-b]pyridin-7-ylamino)bicyclo[2.2.1]hept-5-ene-2-carboxamide], for which the IC50 was 100 to 1000 nM in experiment [1] and less than 100 nM in experiment [2].

On to `CN1CCN(Cc2ccc(-c3nc4c(N[C@H]5[C@@H](C(N)=O)[C@@H]6C=C[C@H]5C6)c(Cl)cnc4[nH]3)cc2)CC1` [Compound XX, (1S,2S,3R,4R)-3-{6-Chloro-2-[4-(4-methyl-piperazin-1-ylmethyl)-phenyl]-3H-imidazo[4,5-b]pyridin-7-ylamino}-bicyclo[2.2.1]hept-5-ene-2-carboxylic acid amide; compound with trifluoro-acetic acid bis trifluoroacetic acid salt], for which the IC50 in experiment [1] and in experiment [2] was less than 100 nM throughout.

With `COc1cc(CN2CCOCC2)ccc1-c1nc2c(N[C@@H]3CCCC[C@H]3NS(C)(=O)=O)c(Cl)cnc2[nH]1` [Compound LXX, N-{(1R,2R)-2-[6-Chloro-2-(2-methoxy-4-morpholin-4-ylmethyl-phenyl)-3H-imidazo[4,5-b]pyridine-7-ylamino]-cyclohexyl}-methanesulfonamide], the IC50 in experiment [1] is less than 100 nM; in experiment [2] it was 1000 to 10000 nM.

`COc1cc(N2CCOCC2)ccc1-c1nc2c(N[C@H]3[C@@H](C(N)=O)[C@@H]4CC[C@H]3O4)c(Cl)cnc2[nH]1` [Compound CCVI, (1S,2R,3S,4R)-3-(6-chloro-2-(2-methoxy-4-morpholinophenyl)-3H-imidazo[4,5-b]pyridin-7-ylamino)-7-oxabicyclo[2.2.1]heptane-2-carboxamide]: the values for the IC50 in experiment [1] and in experiment [2] were 100 to 1000 nM and 1000 to 10000 nM, respectively.

`NC(=O)[C@@H]1[C@H](Nc2c(Br)cnc3[nH]c(-c4ccc(Cl)cc4)nc23)[C@H]2C=C[C@@H]1C2` [Compound CXLIII, (1S,2S,3R,4R)-3-[6-Bromo-2-(4-chloro-phenyl)-3H-imidazo[4,5-b]pyridin-7-ylamino]-bicyclo[2.2.1]hept-5-ene-2-carboxylic acid amide]: the values for the IC50 in experiment [1] and in experiment [2] were 100 to 1000 nM and less than 100 nM, respectively.

For the molecule `COc1ccncc1-c1nc2c(N[C@H]3[C@@H](C(N)=O)[C@@H]4C=C[C@H]3C4)c(Cl)cnc2[nH]1` [Compound XXXV, (1S,2S,3R,4R)-3-[6-Chloro-2-(4-methoxy-pyridin-3-yl)-3H-imidazo[4,5-b]pyridine-7-ylamino]-bicyclo[2.2.1]hept-5-ene-2-carboxylic acid amide], the IC50 in experiment [1] and in experiment [2] was 100 to 1000 nM in each case.

With `CN(C)C(=O)[C@@H]1[C@H](Nc2c(Cl)cnc3[nH]c(-c4sc(N5CCOCC5)nc4Cl)nc23)[C@H]2C=C[C@@H]1C2` [Compound CLXII, (1S,2S,3R,4R)-3-[6-Chloro-2-(4-chloro-2-morpholin-4-yl-thiazol-5-yl)-3H-imidazo[4,5-b]pyridin-7-ylamino]-bicyclo[2.2.1]hept-5-ene-2-carboxylic acid dimethylamide], the IC50 in experiment [1] and in experiment [2] was less than 100 nM throughout.

In the case of `COc1cc(CN2CCNCC2)ccc1-c1nc2c(N[C@H]3[C@@H](C(N)=O)[C@@H]4C=C[C@H]3C4)c(Cl)cnc2[nH]1` [Compound XLII, (1S,2S,3R,4R)-3-[6-Chloro-2-(2-methoxy-4-piperazin-1-ylmethyl-phenyl)-3H-imidazo[4,5-b]pyridine-7-ylamino]-bicyclo[2.2.1]hept-5-ene-2-carboxylic acid amide], the figures for the IC50 in experiment [1] and in experiment [2] were less than 100 nM and 100 to 1000 nM, respectively.

Turning to `CCNC(=O)N1CCC(n2cc(-c3nc4c(N[C@H]5[C@@H](C(N)=O)[C@@H]6C=C[C@H]5C6)c(Cl)cnc4[nH]3)cn2)CC1` [Compound LXII, 4-{4-[7-((1R,2R,3S,4S)-3-Carbamoyl-bicyclo[2.2.1]hept-5-ene-2-ylamino)-6-chloro-3H-imidazo[4,5-b]pyridine-2-yl]-pyrazol-1-yl)-piperidine-1-carboxylic acid ethylamide], the IC50 in experiment [1] and in experiment [2] was less than 100 nM throughout.

For `CN1CCN(C(=O)COc2cccc(-c3nc4c(N[C@H]5[C@@H](C(N)=O)[C@@H]6C=C[C@H]5C6)c(Cl)cnc4[nH]3)c2)CC1` [Compound CCXLIII, (1S,2S,3R,4R)-3-(6-chloro-2-(3-(2-(4-methylpiperazin-1-yl)-2-oxoethoxy)phenyl)-3H-imidazo[4,5-b]pyridine-7-ylamino)pyridin[2.2.1]hept-5-ene-2-carboxamide], the IC50 in experiment [1] and in experiment [2] was less than 100 nM in each case.
